Assay results as given in patent US11427567B2, “Imidazolyl pyrimidinylamine compounds as CDK2 inhibitors” (Incyte Corporation, priority 2019, dated 2022).

Target: CDK2/Cyclin E1 (Homo sapiens (Human), UniProt P24941)
Experiment: CDK2/Cyclin E1 HTRF enzyme activity assay (Example A)
Assay type: biochemical
Conditions: 1 mM ATP
Protocol: Assays were conducted in white 384-well polystyrene plates in a final reaction volume of 8 μL. […] HTRF signals were read after 1 hour at room temperature on a PHERAstar FS plate reader (BMG Labtech). Data was analyzed with IDBS XLFit and GraphPad Prism 5.0 software using a three or four parameter dose response curve to determine IC50 for each compound.

SMILES	IC50 [nM]
CS(=O)(=O)N1CCC(Nc2ncc(C(F)(F)F)c(-c3cn(-c4ccc(CN5CC(F)(F)C5)cc4Cl)cn3)n2)CC1 [Example 193, 4-(1-(2-Chloro-4-((3,3-difluoroazetidin-1-yl)methyl)phenyl)-1H-imidazol-4-yl)-N-(1-(methylsulfonyl)-piperidin-4-yl)-5-(trifluoromethyl)-pyrimidin-2-amine]	≤ 50
CC1(O)CN(Cc2ccc(-n3cnc(-c4nc(NC5CCN(S(C)(=O)=O)CC5)ncc4C(F)(F)F)c3)c(Cl)c2)C1 [Example 194, 1-(3-Chloro-4-(4-(2-((1-(methylsulfonyl)-piperidin-4-yl)amino)-5-(trifluoromethyl)-pyrimidin-4-yl)-1H-imidazol-1-yl)benzyl)-3-methylazetidin-3-ol]	≤ 50
COC1CN(Cc2ccc(-n3cnc(-c4nc(NC5CCN(S(C)(=O)=O)CC5)ncc4C(F)(F)F)c3)c(Cl)c2)C1 [Example 195, 4-(1-(2-Chloro-4-((3-methoxyazetidin-1-yl)methyl)phenyl)-1H-imidazol-4-yl)-N-(1-(methylsulfonyl)-piperidin-4-yl)-5-(trifluoromethyl)-pyrimidin-2-amine]	≤ 50
CC1(F)CN(Cc2ccc(-n3cnc(-c4nc(NC5CCN(S(C)(=O)=O)CC5)ncc4C(F)(F)F)c3)c(Cl)c2)C1 [Example 196, 4-(1-(2-Chloro-4-((3-fluoro-3-methyl-azetidin-1-yl)methyl)-phenyl)-1H-imidazol-4-yl)-N-(1-(methyl-sulfonyl)piperidin-4-yl)-5-(trifluoromethyl)-pyrimidin-2-amine]	≤ 50
CS(=O)(=O)N1CCC(Nc2ncc(C(F)(F)F)c(-c3cn(-c4ccc(CN5CC(F)C5)cc4Cl)cn3)n2)CC1 [Example 197, 4-(1-(2-Chloro-4-((3-fluoroazetidin-1-yl)methyl)phenyl)-1H-imidazol-4-yl)-N-(1-(methyl-sulfonyl)piperidin-4-yl)-5-(trifluoro-methyl)pyrimidin-2-amine]	≤ 50
CS(=O)(=O)N1CCC(Nc2ncc(C(F)(F)F)c(-c3cn(-c4ccc(CN5CC(C#N)C5)cc4Cl)cn3)n2)CC1 [Example 198, 1-(3-Chloro-4-(4-(2-((1-(methylsulfonyl)-piperidin-4-yl)amino)-5-(trifluoromethyl)-pyrimidin-4-yl)-1H-imidazol-1-yl)benzyl)-azetidine-3-carbonitrile]	≤ 50
CS(=O)(=O)N1CCC(Nc2ncc(C(F)(F)F)c(-c3cn(-c4ccc(CN5CC(O)C5)cc4Cl)cn3)n2)CC1 [Example 199, 1-(3-Chloro-4-(4-(2-((1-(methylsulfonyl)-piperidin-4-yl)amino)-5-(trifluoromethyl)-pyrimidin-4-yl)-1H-imidazol-1-yl)benzyl)-azetidin-3-ol]	≤ 50
CC1(C)CN(Cc2ccc(-n3cnc(-c4nc(NC5CCN(S(C)(=O)=O)CC5)ncc4C(F)(F)F)c3)c(Cl)c2)C1 [Example 200, 4-(1-(2-Chloro-4-((3,3-dimethyl-azetidin-1-yl)methyl)-phenyl)-1H-imidazol-4-yl)-N-(1-(methyl-sulfonyl)piperidin-4-yl)-5-(trifluoromethyl)-pyrimidin-2-amine]	≤ 50
CC1(CO)CCN1Cc1ccc(-n2cnc(-c3nc(NC4CCN(S(C)(=O)=O)CC4)ncc3C(F)(F)F)c2)c(Cl)c1 (stereo not drawn) [Example 201, (1-(3-Chloro-4-(4-(2-((1-(methylsulfonyl)-piperidin-4-yl)amino)-5-(trifluoromethyl)-pyrimidin-4-yl)-1H-imidazol-1-yl)benzyl)-2-methylazetidin-2-yl)methanol]	≤ 50
CS(=O)(=O)N1CCC(Nc2ncc(C(F)(F)F)c(-c3cn(-c4ccc(CN5CC6(CC(O)C6)C5)cc4Cl)cn3)n2)CC1 [Example 202, 2-(3-Chloro-4-(4-(2-((1-(methylsulfonyl)-piperidin-4-yl)amino)-5-(trifluoromethyl)-pyrimidin-4-yl)-1H-imidazol-1-yl)benzyl)-2-azaspiro[3.3]heptan-6-ol]	≤ 50
CC(C)(O)C1CN(Cc2ccc(-n3cnc(-c4nc(NC5CCN(S(C)(=O)=O)CC5)ncc4C(F)(F)F)c3)c(Cl)c2)C1 [Example 203, 2-(1-(3-Chloro-4-(4-(2-((1-(methyl-sulfonyl)piperidin-4-yl)amino)-5-(trifluoromethyl)-pyrimidin-4-yl)-1H-imidazol-1-yl)-benzyl)azetidin-3-yl)propan-2-ol]	≤ 50
C[C@]1(O)CCN(Cc2ccc(-n3cnc(-c4nc(NC5CCN(S(C)(=O)=O)CC5)ncc4C(F)(F)F)c3)c(Cl)c2)C1 [Example 204, (S)-1-(3-Chloro-4-(4-(2-((1-(methyl-sulfonyl)piperidin-4-yl)amino)-5-(trifluoromethyl)-pyrimidin-4-yl)-1H-imidazol-1-yl)-benzyl)-3-methyl-pyrrolidin-3-ol]	≤ 50
CS(=O)(=O)N1CCC(Nc2ncc(C(F)(F)F)c(-c3cn(-c4ccc(CN5CC[C@@H](O)C5)cc4Cl)cn3)n2)CC1 [Example 205]	≤ 50
CS(=O)(=O)N1CCC(Nc2ncc(C(F)(F)F)c(-c3cn(-c4ccc(CN5CC[C@H](O)C5)cc4Cl)cn3)n2)CC1 [Example 206, (S)-1-(3 -Chloro-4-(4-(2-((1-(methyl-sulfonyl)piperidin-4-yl)amino)-5-(trifluoromethyl)-pyrimidin-4-yl)-1H-imidazol-1-yl)benzyl)-pyrrolidin-3-ol]	≤ 50
CO[C@@H]1CCN(Cc2ccc(-n3cnc(-c4nc(NC5CCN(S(C)(=O)=O)CC5)ncc4C(F)(F)F)c3)c(Cl)c2)C1 [Example 207, (R)-4-(1-(2-Chloro-4-((3-methoxypyrrolidin-1-yl)methyl)phenyl)-1H-imidazol-4-yl)-N-(1-(methylsulfonyl)-piperidin-4-yl)-5-(trifluoromethyl)-pyrimidin-2-amine]	≤ 50
CS(=O)(=O)N1CCC(Nc2ncc(C(F)(F)F)c(-c3cn(-c4ccc(CN5CCCCC5)cc4Cl)cn3)n2)CC1 [Example 208]	≤ 50
CN1CCN(Cc2ccc(-n3cnc(-c4nc(NC5CCN(S(C)(=O)=O)CC5)ncc4C(F)(F)F)c3)c(Cl)c2)CC1 [Example 209, 4-(1-(2-Chloro-4-((4-methylpiperazin-1-yl)methyl)phenyl)-1H-imidazol-4-yl)-N-(1-(methylsulfonyl)-piperidin-4-yl)-5-(trifluoromethyl)-pyrimidin-2-amine]	≤ 50
CS(=O)(=O)N1CCC(Nc2ncc(C(F)(F)F)c(-c3cn(-c4ccc(CN5CCOCC5)cc4Cl)cn3)n2)CC1 [Example 210, 4-(1-(2-Chloro-4-(morpholinomethyl)-phenyl)-1H-imidazol-4-yl)-N-(1-(methyl-sulfonyl)piperidin-4-yl)-5-(trifluoro-methyl)pyrimidin-2-amine]	≤ 50
CN1CCN(Cc2ccc(-n3cnc(-c4nc(NC5CCN(S(C)(=O)=O)CC5)ncc4C(F)(F)F)c3)c(Cl)c2)CC1=O [Example 211, 4-(3-Chloro-4-(4-(2-((1-(methylsulfonyl)-piperidin-4-yl)amino)-5-(trifluoromethyl)-pyrimidin-4-yl)-1H-imidazol-1-yl)benzyl)-1-methylpiperazin-2-one]	≤ 50
CS(=O)(=O)N1CCC(Nc2ncc(C(F)(F)F)c(-c3cn(-c4ccc(CN5CCN6CCCC6C5)cc4Cl)cn3)n2)CC1 (stereo not drawn) [Example 212, 4-(1-(2-Chloro-4-((hexahydropyrrolo-[1,2-a]pyrazin-2(1H)-yl)methyl)phenyl)-1H-imidazol-4-yl)-N-(1-(methylsulfonyl)-piperidin-4-yl)-5-(trifluoromethyl)-pyrimidin-2-amine]	≤ 50
CS(=O)(=O)N1CCC(Nc2ncc(C(F)(F)F)c(-c3cn(-c4ccc(CN5CC6CC5CO6)cc4Cl)cn3)n2)CC1 (stereo not drawn) [Example 213]	≤ 50
CS(=O)(=O)N1CCC(Nc2ncc(C(F)(F)F)c(-c3cn(-c4ccc(CN5C6COCC5C6)cc4Cl)cn3)n2)CC1 [Example 214, 4-(1-(4-((3-Oxa-6-azabicyclo[3.1.1]-heptan-6-yl)methyl)-2-chlorophenyl)-1H-imidazol-4-yl)-N-(1-(methylsulfonyl)-piperidin-4-yl)-5-(trifluoromethyl)-pyrimidin-2-amine]	≤ 50
CS(=O)(=O)N1CCC(Nc2ncc(C(F)(F)F)c(-c3cn(-c4ccc(CN5C6CCC5COC6)cc4Cl)cn3)n2)CC1 [Example 215, 4-(1-(4-((3-Oxa-8-azabicyclo[3.2.1]-octan-8-yl)methyl)-2-chlorophenyl)-1H-imidazol-4-yl)-N-(1-(methylsulfonyl)-piperidin-4-yl)-5-(trifluoromethyl)-pyrimidin-2-amine]	≤ 50
CS(=O)(=O)N1CCC(Nc2ncc(C(F)(F)F)c(-c3cn(-c4ccc(CN5CC6CCC5CO6)cc4Cl)cn3)n2)CC1 (stereo not drawn) [Example 216, 4-(1-(4-((2-Oxa-5-azabicyclo[2.2.2]-octan-5-yl)methyl)-2-chlorophenyl)-1H-imidazol-4-yl)-N-(1-(methylsulfonyl)-piperidin-4-yl)-5-(trifluoromethyl)-pyrimidin-2-amine]	≤ 50
C[C@@H]1CN(S(C)(=O)=O)CC[C@@H]1Nc1ncc(C(F)(F)F)c(-c2cn(-c3ccc(CNCC#N)cc3Cl)cn2)n1 [Example 217, 2-((3-Chloro-4-(4-(2-(((3R,4S)-3-methyl-1-(methylsulfonyl)-piperidin-4-yl)amino)-5-(trifluoromethyl)-pyrimidin-4-yl)-1H-imidazol-1-yl)benzyl)-amino)acetonitrile]	≤ 50
CCNCc1ccc(-n2cnc(-c3nc(N[C@H]4CCN(S(C)(=O)=O)C[C@H]4C)ncc3C(F)(F)F)c2)c(Cl)c1 [Example 218, 4-(1-(2-Chloro-4-((ethylamino)methyl)-phenyl)-1H-imidazol-4-yl)-N-((3R,4S)-3-methyl-1-(methyl-sulfonyl)piperidin-4-yl)-5-(trifluoro-methyl)-pyrimidin-2-amine]	≤ 50
C[C@@H]1CN(S(C)(=O)=O)CC[C@@H]1Nc1ncc(C(F)(F)F)c(-c2cn(-c3ccc(CN4CCC4)cc3Cl)cn2)n1 [Example 219, 4-(1-(4-(Azetidin-1-ylmethyl)-2-chloro-phenyl)-1H-imidazol-4-yl)-N-((3R,4S)-3-methyl-1-(methyl-sulfonyl)piperidin-4-yl)-5-(trifluoro-methyl)pyrimidin-2-amine]	≤ 50
